Laboratory results published in patent EP0353049A2, “NAD-independent alpha- glycerol-3-phosphate dehydrogenases, production and use therof in triglyceride and glycerol determinations” (Genzyme (U.K.) LTD., priority 1988, dated 1990).

Experiments:
[1] = molecular target: enzyme from E. coli (Escherichia coli, UniProt P13035); conditions: cited from earlier work
[2] = molecular target: T1, NAD-independent α-glycerol-3-phosphate dehydrogenase (Priestia megaterium, UniProt D5DYU7); experiment: α-glycerol-3-phosphate dehydrogenase activity assay (rate of INT reduction, absorbance at 505nm, 37°C); format: biochemical, B. megaterium; conditions: concentration of inhibitor bringing about 50% inhibition
T1 sequence (D5DYU7 1-559): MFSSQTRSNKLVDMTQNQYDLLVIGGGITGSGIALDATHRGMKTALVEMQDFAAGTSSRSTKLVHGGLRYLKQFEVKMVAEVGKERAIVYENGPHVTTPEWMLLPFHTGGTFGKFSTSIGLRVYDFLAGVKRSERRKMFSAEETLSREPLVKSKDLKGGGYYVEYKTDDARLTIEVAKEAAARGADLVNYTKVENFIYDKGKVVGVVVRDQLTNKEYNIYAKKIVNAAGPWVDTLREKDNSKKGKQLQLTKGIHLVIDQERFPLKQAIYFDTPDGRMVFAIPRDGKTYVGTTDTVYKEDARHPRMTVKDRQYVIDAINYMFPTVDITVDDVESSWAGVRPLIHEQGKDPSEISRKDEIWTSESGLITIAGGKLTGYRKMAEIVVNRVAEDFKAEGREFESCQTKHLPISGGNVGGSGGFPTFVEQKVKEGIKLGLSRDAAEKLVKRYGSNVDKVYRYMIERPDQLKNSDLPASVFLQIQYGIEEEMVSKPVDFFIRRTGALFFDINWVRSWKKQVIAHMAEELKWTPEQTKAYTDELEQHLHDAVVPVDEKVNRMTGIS
Experimental: Aliquots of the resulting cell-free extract and other samples containing partially purified α-glycerol-3-phosphate dehydrogenase were used in the following assay test system:
The rate of change of absorbance was measured at 505nm, 37°C in a spectrophotometer. According to such test, the specific activity of the purified enzyme (from gel filtration chromatography) was 1.0 unit/mg protein; a unit is number of µmoles of INT reduced per min.

Chain of enzyme from E. coli (P13035 whole entry): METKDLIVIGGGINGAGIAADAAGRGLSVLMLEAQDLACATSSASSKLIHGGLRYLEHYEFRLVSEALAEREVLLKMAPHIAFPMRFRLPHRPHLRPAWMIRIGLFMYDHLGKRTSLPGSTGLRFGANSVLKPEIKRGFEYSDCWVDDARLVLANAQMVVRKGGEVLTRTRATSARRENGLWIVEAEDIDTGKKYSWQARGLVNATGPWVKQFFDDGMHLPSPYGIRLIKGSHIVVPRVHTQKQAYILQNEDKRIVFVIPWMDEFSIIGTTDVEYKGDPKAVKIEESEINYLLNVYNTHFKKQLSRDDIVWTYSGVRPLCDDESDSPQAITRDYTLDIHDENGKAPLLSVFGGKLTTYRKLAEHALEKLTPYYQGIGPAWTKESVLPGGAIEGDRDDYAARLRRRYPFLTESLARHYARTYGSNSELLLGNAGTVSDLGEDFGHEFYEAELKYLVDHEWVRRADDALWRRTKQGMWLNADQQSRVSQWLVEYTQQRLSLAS

Row | Compound | Km [1] [µM] | 50% inhibition of enzyme activity (concentration) [2] [%]
1 | O=P(O)(O)OC[C@H](O)CO [L-α-glycerol-3-phosphate] | 400 | 
2 | ammonium sulphate |  | 1
